# Reference: ChEMBL document CHEMBL5365447, “Pronucleotides of 2',3'-Dideoxy-2',3'-Didehydrothymidine as Potent Anti-HIV Compounds” (J Med Chem, 2023)
# The source made the active and inactive calls. The calls are words filed in the database; no cut-off is given here.
# Tests used:
# [1] = target: DNA polymerase beta (Homo sapiens) (UniProt P06746); test: Substrate activity at human DNA polymerase beta measured after 4 hrs by electrophoresis based primer extension assay
# [2] = Chemical stability of the compound in phosphate buffer assessed as half life at pH 7.3 by HPLC analysis; format: physicochemical
# [3] = tested on: Human immunodeficiency virus 2; test: Potency index, ratio of 3'-deoxy-2',3'-dehydrothymidine EC50 to compound EC50 for antiviral activity against HIV-2 ROD infected in thymidine kinase-deficient human CEM[…] cells; format: functional
# [4] = Prodrug conversion in pH 7.3 phosphate buffer assessed as ((2S,5R)-5-(5-methyl-2,4-dioxo-3,4-dihydropyrimidin-1(2H)-yl)-2,5-dihydrofuran-2-yl)methyl tri-hydrogen diphosphate formation by measuring half life in presence of pig liver esterase by HPLC analysis; format: ADME
# [5] = Cytotoxicity against human CEM cells assessed as reduction in cell viability incubated for 4 to 5 days by light microscopic analysis; format: toxicity, cell-based; conditions: CEM cells (CCRF-CEM), time 4-5 day
# [6] = Prodrug conversion in human CEM/0 cell extract assessed as ((2S,5R)-5-(5-methyl-2,4-dioxo-3,4-dihydropyrimidin-1(2H)-yl)-2,5-dihydrofuran-2-yl)methyl tri-hydrogen diphosphate formation by HPLC analysis; format: ADME; conditions: ccrf-cem
# [7] = Retention time of the compound by HPLC analysis; format: physicochemical
# [8] = Selectivity index, ratio of CC50 for human CEM cells to EC50 for HIV-2 ROD infected in thymidine kinase-deficient human CEM cells; format: toxicity; conditions: read-out: Ratio CC50/EC50
# [9] = tested on: Human immunodeficiency virus 2; test: Antiviral activity against HIV-2 ROD infected in thymidine kinase-deficient human CEM cells assessed as inhibition of virus-induced cytopathic effect incubated for 4 to 5 days by light microscopic analysis; format: functional, organism-based; conditions: Human immunodeficiency virus 2, ROD, CCRF-CEM
# [10] = tested on: Human immunodeficiency virus 2; test: Potency index, ratio of 3'-deoxy-2',3'-dehydrothymidine EC50 to compound EC50 for antiviral activity against HIV-2 ROD infected in wild-type human CEM/0 cells; format: functional
# [11] = tested on: Human immunodeficiency virus 2; test: Antiviral activity against HIV-2 ROD infected in wild-type human CEM/0 cells assessed as inhibition of virus-induced cytopathic effect incubated for 4 to 5 days by light microscopic analysis; format: functional, organism-based; conditions: Human immunodeficiency virus 2, ROD, CCRF-CEM
# [12] = tested on: Human immunodeficiency virus; test: Substrate activity at HIV reverse transcriptase measured after 4 hrs by electrophoresis based primer extension assay
# [13] = tested on: Human immunodeficiency virus 1; test: Potency index, ratio of 3'-deoxy-2',3'-dehydrothymidine EC50 to compound EC50 for antiviral activity against HIV-1 HE infected in wild-type human CEM/0 cells; format: functional
# [14] = target: T1, DNA polymerase alpha catalytic subunit (Homo sapiens) (UniProt P09884); test: Substrate activity at human DNA polymerase alpha measured after 4 hrs by electrophoresis based primer extension assay
# T1 sequence (whole entry): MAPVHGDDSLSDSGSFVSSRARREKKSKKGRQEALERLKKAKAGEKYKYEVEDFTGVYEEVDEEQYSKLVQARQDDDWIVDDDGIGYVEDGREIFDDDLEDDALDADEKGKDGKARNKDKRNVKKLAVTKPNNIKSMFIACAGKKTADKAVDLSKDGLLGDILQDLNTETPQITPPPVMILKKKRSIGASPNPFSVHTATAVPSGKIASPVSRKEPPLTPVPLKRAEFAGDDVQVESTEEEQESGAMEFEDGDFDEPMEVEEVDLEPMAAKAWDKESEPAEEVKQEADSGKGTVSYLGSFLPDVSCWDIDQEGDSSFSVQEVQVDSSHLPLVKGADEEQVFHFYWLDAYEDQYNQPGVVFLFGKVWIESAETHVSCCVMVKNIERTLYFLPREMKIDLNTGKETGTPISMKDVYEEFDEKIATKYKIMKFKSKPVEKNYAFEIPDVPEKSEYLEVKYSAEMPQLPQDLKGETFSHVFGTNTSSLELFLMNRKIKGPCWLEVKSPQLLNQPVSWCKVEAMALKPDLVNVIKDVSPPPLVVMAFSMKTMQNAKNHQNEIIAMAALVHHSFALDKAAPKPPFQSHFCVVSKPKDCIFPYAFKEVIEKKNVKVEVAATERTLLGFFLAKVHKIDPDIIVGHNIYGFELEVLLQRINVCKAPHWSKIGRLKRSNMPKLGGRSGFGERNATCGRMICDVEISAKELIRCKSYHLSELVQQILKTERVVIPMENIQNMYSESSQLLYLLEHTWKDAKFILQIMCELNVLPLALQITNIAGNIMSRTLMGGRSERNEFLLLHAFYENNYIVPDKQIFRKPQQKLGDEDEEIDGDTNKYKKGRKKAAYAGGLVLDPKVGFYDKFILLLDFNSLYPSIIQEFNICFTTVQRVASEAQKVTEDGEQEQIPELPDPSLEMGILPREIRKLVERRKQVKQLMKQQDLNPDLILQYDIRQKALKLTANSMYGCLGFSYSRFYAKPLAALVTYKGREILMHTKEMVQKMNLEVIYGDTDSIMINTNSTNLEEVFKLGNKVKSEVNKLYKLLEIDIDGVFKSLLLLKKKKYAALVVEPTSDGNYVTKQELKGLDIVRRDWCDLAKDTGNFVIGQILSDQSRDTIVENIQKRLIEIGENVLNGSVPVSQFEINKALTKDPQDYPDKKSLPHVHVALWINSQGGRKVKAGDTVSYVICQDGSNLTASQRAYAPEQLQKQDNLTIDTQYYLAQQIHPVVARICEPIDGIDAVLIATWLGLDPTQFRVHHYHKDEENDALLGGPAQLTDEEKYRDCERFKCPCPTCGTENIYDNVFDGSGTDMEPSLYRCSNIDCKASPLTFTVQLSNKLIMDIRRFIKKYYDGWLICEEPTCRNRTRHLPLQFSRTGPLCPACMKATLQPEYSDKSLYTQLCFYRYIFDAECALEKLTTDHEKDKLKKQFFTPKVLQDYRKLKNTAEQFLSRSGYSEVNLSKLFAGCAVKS
# [15] = Prodrug conversion in human CEM/0 cell extract assessed as metabolite formation by measuring half life by HPLC analysis; format: ADME; conditions: ccrf-cem
# [16] = tested on: Human immunodeficiency virus 1; test: Antiviral activity against HIV-1 HE infected in wild-type human CEM/0 cells assessed as inhibition of virus-induced cytopathic effect incubated for 4 to 5 days by light microscopic analysis; format: functional, organism-based; conditions: Human immunodeficiency virus 1, HE, CCRF-CEM
# [17] = Prodrug conversion in human CEM/0 cell extract assessed as ((2S,5R)-5-(5-methyl-2,4-dioxo-3,4-dihydropyrimidin-1(2H)-yl)-2,5-dihydrofuran-2-yl)methyl dihydrogen phosphate formation by HPLC analysis; format: ADME; conditions: ccrf-cem
compound,measurement,setting,value
CCCCCCCCCCCCCCCCCCP(=O)(OC)OP(=O)(O)OP(=O)(O)OC[C@@H]1C=C[C@H](n2cc(C)c(=O)[nH]c2=O)O1.N.N (some centres not stated),Activity,[1],inactive
same,half-life,[2],27.2 days
same,Ratio EC50,[3],10000
same,t1/2,[4],> 6.25 days
same,CC50,[5],40000 nM
same,Drug metabolism,[6],Metabolite_Detected
same,Retention_time,[7],15.2 min
same,selectivity ratio,[8],83
same,EC50,[9],480 nM
same,Ratio EC50,[10],4
same,EC50,[11],80 nM
same,Activity,[12],Active
same,Ratio EC50,[13],4
same,Activity,[14],inactive
same,t1/2,[15],> 0.625 days
same,EC50,[16],51 nM
same,Drug metabolism,[17],Metabolite_Detected
